# Source: publication PMC12058896, “Potent antimicrobial activity of hydrogel loaded with the antimicrobial peptide, D-Bac8c^2,5 Leu, against monospecies and polymicrobial biofilms of Staphylococcus aureus and Pseudomonas aeruginosa” (Frontiers in Microbiology, 2025)
# Read-outs that look alike come from different tables or passages of the source. Residues, ends and D or L forms follow the SMILES beside them.
# Experiments:
# BH1CC = test: microbe, parasite or virus in culture; format: cell-based, Staphylococcus aureus; conditions: 18 h
# Description: (§1) Strains used in the study were isolates of methicillin-resistant Staphylococcus aureus (MRSA); USA300 LAC, BH1CC ([O’Neill et al., 2007]), methicillin-sensitive S. aureus (MSSA); SH1000 ([Horsburgh et al., 2002]) and BH48 ([O’Neill et al., 2007]); and Pseudomonas aeruginosa PAO1 (ATCC […]). Clinical isolates were obtained from a previous collection of isolates of infected wounds. Bacteria were grown aerobically at 37°C with shaking at 200 rpm in Brain Heart Infusion (BHI, Oxoid, Ireland). Selective media, Mannitol Salt Agar (SLS, Ireland) and MacConkey agar (SLS, Ireland), for re-isolation of bacterial strains from mixed species biofilms were used. Bolton Broth (Fannin, Ireland) supplemented with 50% bovine heparin plasma (TebuBio, UK), and 5% laked horse blood (Sigma-Aldrich, Ireland) was used to mimic in vivo conditions for static antibiofilm testing. For dynamic biofilm growth Simulated Wound Fluid (SWF) prepared as described previously with slight modification, 3% v/v fetal bovine serum in maximum recovery diluent (Merck, Ireland) was used ([Barbour et al., 2016]).
# (§2) Minimum inhibitory concentration (MIC) was determined aerobically using the broth microdilution assay as recommended by the Clinical and Laboratory Standards Institute (CLSI) ([CLSI, 2018]). Briefly, 2-fold serial dilutions of the antimicrobial peptides of interest and conventional antibiotics were prepared in Mueller-Hinton broth (MHB) (Merck, Ireland) in a 96-well round bottom polypropylene plate (ThermoFisher, Ireland). Diluted bacterial suspensions in sterile PBS (Sigma, Ireland) were added to each well resulting in a final cell density of approximately 10^5 colony forming units (CFU)/mL. Microplates were incubated statically for 18 h at 37°C. In each assay, inoculated medium without antimicrobials and uninoculated medium served as growth and sterility controls, respectively. Conventional antibiotics, gentamicin (Merck, Ireland) and mupirocin (SLS, UK), were tested as comparator antimicrobials. The MIC value was defined as the lowest antimicrobial concentration showing no visible growth relative to positive (no antimicrobial agent) and negative controls (BHI alone). Experiments were conducted in triplicate, and independent replicates were performed three times to yield n = 3.
# BH48 = test: microbe, parasite or virus in culture; format: cell-based, Staphylococcus aureus; conditions: 18 h
# Description: as §1, §2
# SH1000 = test: microbe, parasite or virus in culture; format: cell-based, Staphylococcus aureus
# Description: as §1, §2
# USA300 = test: microbe, parasite or virus in culture; format: cell-based, Staphylococcus aureus
# Description: as §1, §2
# PAO1 = test: microbe, parasite or virus in culture; format: cell-based, Pseudomonas aeruginosa
# Description: as §1, §2
# HaCaT = test: MTT cell viability; format: cell-based, human; conditions: 24 h, 37°C, 5% CO2, ethanol control
# HUVEC = test: MTT cell viability; format: cell-based, human; conditions: 24 h, 37°C, 5% CO2, ethanol control
# THP-1 = format: cell-based, human; conditions: THP-1; 24 h, 37°C, 5% CO2; ethanol control
# Description: Sigma-Aldrich, Ireland). […] At 90% confluence, cells were centrifuged and diluted to a 1:5 ratio with complete RPMI. THP-1 cells were seeded in a 96 well plate at a density of 1 × 10^5 cells/mL with increasing concentrations of D-Bac8c^2,5 Leu. Cells were incubated for 24 h at 37°C with 5% CO2, 95% humidity. […] The absorbance was measured at 595 nm in a microplate spectrophotometer. Cell viability was calculated as a percentage of a control treated with PBS. Two technical replicates were performed each day on three independent days.
# S. aureus strains = format: cell-based, Staphylococcus aureus; conditions: 2 MRSA and 2 MSSA strains, summed up in text
# Description: as §1
# Minimum inhibitory concentration (MIC) was determined aerobically using the broth microdilution assay as recommended by the Clinical and Laboratory Standards Institute (CLSI) ([CLSI, 2018]). […]
# [1] = Staphylococcus aureus, BH1CC (MRSA), MHB, about 10^5 CFU/mL, 37°C, n = 3, read-out: MIC
# [2] = Staphylococcus aureus, BH48 (MSSA), MHB, about 10^5 CFU/mL, 37°C, n = 3, read-out: MIC
# [3] = Staphylococcus aureus, SH1000 (MSSA), MHB, about 10^5 CFU/mL, 18 h, 37°C, n = 3, read-out: MIC
# [4] = Staphylococcus aureus, USA300 (MRSA), MHB, about 10^5 CFU/mL, 18 h, 37°C, n = 3, read-out: MIC
# [5] = Pseudomonas aeruginosa, PAO1, MHB, about 10^5 CFU/mL, 18 h, 37°C, n = 3, read-out: MIC
# [6] = BH1CC (MRSA), MHB, about 10^5 CFU/mL, 37°C, n = 3
# [7] = BH48 (MSSA), MHB, about 10^5 CFU/mL, 37°C, n = 3
# [8] = SH1000 (MSSA), MHB, about 10^5 CFU/mL, 18 h, 37°C, n = 3
# [9] = USA300 (MRSA), MHB, about 10^5 CFU/mL, 18 h, 37°C, n = 3
# [10] = PAO1, MHB, about 10^5 CFU/mL, 18 h, 37°C, n = 3
compound,measurement,setting,value
"CC[C@H](C)[C@H](NC(=O)[C@H](CCCNC(=N)N)NC(=O)[C@H](Cc1ccccc1)NC(=O)[C@H](CCCNC(=N)N)NC(=O)[C@@H](N)CCCCN)C(=O)N[C@@H](CCCNC(=N)N)C(=O)N[C@H](C(=O)N[C@@H](CCCNC(=N)N)C(=O)N[C@H](C(N)=O)C(C)C)C(C)C [1,037] (H-KRFRIRVRV-NH2)",MIC,BH1CC,128 µg/mL
same,MIC,BH48,128 µg/mL
same,MIC,"SH1000; SH1000, 18 h",128 µg/mL
same,MIC,"USA300; USA300, 18 h",128 µg/mL
same,MIC,"PAO1; PAO1, 18 h",64 µg/mL
CC(C)[C@H](NC(=O)[C@H](CCCCN)NC(=O)[C@H](CCCCN)NC(=O)[C@@H]1CCCN1C(=O)[C@H](CCCCN)NC(=O)[C@@H](NC(=O)[C@@H]1CCCN1C(=O)[C@H](CCCCN)NC(=O)[C@@H](NC(=O)[C@H](CCCCN)NC(=O)[C@H](CCCCN)NC(=O)[C@H](CO)NC(=O)[C@@H]1CCCN1)[C@@H](C)O)C(C)C)C(=O)N[C@@H](C)C(N)=O [DRGN-1] (H-PSKKTKPVKPKKVA-NH2),MIC,BH1CC,>400 µg/mL
same,MIC,BH48,>400 µg/mL
same,MIC,"SH1000; SH1000, 18 h",>400 µg/mL
same,MIC,"USA300; USA300, 18 h",>400 µg/mL
same,MIC,"PAO1; PAO1, 18 h",>400 µg/mL
"CCO [Ethanol, reference compound]","IC50 (50% cell viability), MTT",HaCaT,1.2%
same,"IC50 (50% cell viability), MTT",HUVEC,0.4%
same,"IC50 (50% cell viability), MTT",THP-1,1%
CC(=O)O[C@H]1C[C@@]2(C)[C@@H](C[C@@H](O)[C@H]3[C@@]4(C)CC[C@@H](O)[C@@H](C)[C@@H]4CC[C@@]32C)/C1=C(\CCC=C(C)C)C(=O)O [Fusidic acid],MIC,BH1CC; [1],2 µg/mL
same,MIC,BH48; [2],4 µg/mL
same,MIC,SH1000; [3],0.06 µg/mL
same,MIC,USA300; [4],0.03 µg/mL
same,MIC,PAO1; [5],> 512 µg/mL
"CNC(C)C1CCC(N)C(OC2C(N)CC(N)C(OC3OCC(C)(O)C(NC)C3O)C2O)O1 (stereo not drawn) [Gentamicin, gentamicin]",MIC,BH1CC; [1],32 µg/mL
same,MIC,BH48; [2],0.25 µg/mL
same,MIC,SH1000; [3],0.25 µg/mL
same,MIC,USA300; [4],0.5 µg/mL
same,MIC,PAO1; [5],1 µg/mL
CC[C@H](C)[C@H](NC(=O)[C@H](CCCNC(=N)N)NC(=O)[C@@H](NC(=O)[C@H](C)NC(=O)[C@@H](NC(=O)[C@@H](NC(=O)[C@H](CC(C)C)NC(=O)[C@H](CCCNC(=N)N)NC(=O)[C@@H](N)C(C)C)[C@@H](C)CC)C(C)C)C(C)C)C(=O)N[C@@H](Cc1c[nH]c2ccccc12)C(=O)N[C@@H](CCCNC(=N)N)C(=O)N[C@@H](CCCNC(=N)N)C(N)=O [IDR-1018] (H-VRLIVAVRIWRR-NH2),MIC,BH1CC; [6],128 µg/mL
same,MIC,BH48; [7],128 µg/mL
same,MIC,SH1000; [8],64 µg/mL
same,MIC,USA300; [9],64 µg/mL
same,MIC,PAO1; [10],64 µg/mL
"C/C(=C\C(=O)OCCCCCCCCC(=O)O)C[C@@H]1OC[C@H](C[C@@H]2O[C@H]2[C@@H](C)[C@H](C)O)[C@@H](O)[C@H]1O [Mupirocin, mupirocin]",MIC,BH1CC; [1],2 µg/mL
same,MIC,BH48; [2],0.03 µg/mL
same,MIC,SH1000; [3],0.03 µg/mL
same,MIC,USA300; [4],0.06 µg/mL
same,MIC,PAO1; [5],> 2050 µg/mL
CC[C@H](C)[C@H](NC(=O)CNC(=O)[C@H](CCCCN)NC(=O)[C@H](Cc1ccc(O)cc1)NC(=O)[C@H](CS)NC(=O)[C@@H](NC(=O)[C@H](CCCCN)NC(=O)[C@H](Cc1c[nH]c2ccccc12)NC(=O)[C@H](CS)NC(=O)[C@H](Cc1ccccc1)NC(=O)[C@@H](N)CCCNC(=N)N)C(C)C)C(=O)N[C@@H](CS)C(=O)N[C@@H](Cc1ccccc1)C(=O)N[C@@H](CCCCN)C(=O)N[C@@H](CCCCN)C(=O)N[C@@H](CS)C(=O)N[C@@H](CCCCN)C(N)=O [RP557] (H-RFCWKVCYKGICFKKCK-NH2; N-terminus assumed),MIC,BH1CC; [6],16 µg/mL
same,MIC,BH48; [7],16 µg/mL
same,MIC,SH1000; [8],16 µg/mL
same,MIC,USA300; [9],16 µg/mL
same,MIC,PAO1; [10],8 µg/mL
same,MIC against S. aureus strains,S. aureus strains,16 µg/mL
